# Measured values: PMC9673142, “1,3-Diarylpyrazolyl-acylsulfonamides Target HadAB/BC Complex in Mycobacterium tuberculosis” (ACS Infectious Diseases, 2022)
# Legend:
# [1] = test system: compound 1-resistant Mtb mutants (SRM59, Rv0637/hadC:K157R); assay type: cell-based, Mycobacterium tuberculosis
# [2] = test system: EthA mutant (C253R) of Mtb; conditions: cited from earlier work
# Mtb/pNIP40b-hadABC = test: microbe, parasite or virus in culture; assay type: cell-based; conditions: Mycobacterium tuberculosis, read-out: MIC Mtb/pNIP40b-hadABC
smiles,measurement,setting,value
CS(=O)(=O)NC(=O)CCc1cn(-c2ccc(Br)cc2)nc1-c1ccncc1 [Compound 1],"Compound 1 MIC, SRM59-1",[1],50 to 100 µM
same,"Compound 1 MIC, SRM59-2",[1],50 to 100 µM
same,"Compound 1 MIC, SRM59-3",[1],50 to 100 µM
same,change in MIC against EthA mutant (C253R),[2],no change
CS(=O)(=O)NC(=O)CCc1cn(-c2ccc(Cl)cc2)nc1-c1ccc(Cl)cc1 [Compound 2],MIC,Mtb/pNIP40b-hadABC,2.5 µM
same,change in MIC against EthA mutant (C253R),[2],no change
O=C(O)CCc1cn(-c2ccc(Br)cc2)nc1-c1ccc(Cl)cc1 [Compound 10],MIC,Mtb/pNIP40b-hadABC,3 µM
CS(=O)(=O)NC(=O)NCc1cn(-c2ccc(C(F)(F)F)nc2)nc1-c1ccncc1 [Compound 11],MIC,Mtb/pNIP40b-hadABC,> 40 µM
O=c1[nH]nc(CCc2cn(-c3ccc(Br)cc3)nc2-c2ccc(Cl)cc2)o1 [Compound 12],MIC,Mtb/pNIP40b-hadABC,12.5 µM
CS(=O)(=O)c1nnc(Cc2cn(-c3ccc(Cl)cc3)nc2-c2ccncc2)o1 [Compound 13],MIC,Mtb/pNIP40b-hadABC,1.9 µM
CCc1c(COC(=O)NS(C)(=O)=O)c(-c2ccc(Cl)cc2)nn1-c1ccc(Cl)cc1 [Compound 15],MIC,Mtb/pNIP40b-hadABC,7.8 µM
"CC(C)CCOc1ccc(NC(=S)Nc2ccc(OCCC(C)C)cc2)cc1 [ISO, isoxyl, reference compound]",resistance of EthA mutant (C253R),[2],4–8 folds
"CC(=O)Nc1ccc(/C=N/NC(N)=S)cc1 [TAC, thioacetazone, reference compound]",resistance of EthA mutant (C253R),[2],4–8 folds
